The values below come from patent US8466151B2, “Compounds and method for treatment of cancer” (Critical Outcome Technologies, Inc., priority 2007, dated 2013).

A word on the melting point: it is the temperature of the solid-liquid transition.

Where two headings read alike, the source gives them in different places.

Series [1] deals with human SHP-77 SCLC cells as xenograft. Description: Inhibition of tumor growth, SHP-77 xenograft in NCr-nu mice. The class given is in vivo. The conditions noted are these: for maximum number of tumours versus control, saline-treated mice / mean tumour size versus saline-treated mice: SHP-77 xenografts; for maximum number of tumours versus control, saline-treated mice: FIG. 6, not subject to analysis of significance; for mean tumour size versus saline-treated mice: i.p. treatment up to 38 days, p<0.05; for mean tumor volume: SHP-77 small cell lung cancer xenografts, saline control 260±33 mm^3. How it is done: SHP-77 SCLC cells were grown in culture and injected into each flank of NCr-nu mice (T cell-deficient immunocompromised mice, suitable for growth of this cell line) (2×10^6 cells per injection, in Matrigel™). One day after injection of tumour cells, groups of 5 mice each were injected with 3 mg/kg of COTI-2MO5 or COTI-4MO5 (i.p.), once every 2 days, up to 38 days. Tumour size was estimated at 5, 10, 17, 24, and 38 days, by external caliper measurement. Animals were humanely euthanized after the 38 day tumour measurement.
For comparison, mice (5 mice per group, injected as described above with SHP-77 human tumor cells as described above) and harbouring SHP-77 xenografts were treated with Taxol® (12.5 mg/kg, i.p. in 0.5 ml isotonic saline) every 2 days (according to the report of J. Riondel et al., Anticancer Res. 8:387-90, 1988) or with cisplatin (3.0 mg/kg of DDP i.p., once per week for four weeks, in isotonic saline, according to the report of P. A. Andrews et al., Cancer Commun. 2:93-100, 1990). Tumour size was estimated at 5, 10, 17, 24, and 38 days, by external caliper measurement. Animals were humanely euthanized after the 38 day tumour measurement.

In series [2] the test system is DMS-114 human SCLC cell line. In words: In vitro tumor cell growth inhibition, cell count after 3 days. It is filed as cell-based. How it is done: (§1) Cells were counted after 3 days in culture and at a cell density of no more than 80%.
(§2) In vitro inhibition of small cell lung cancer (SCLC) cell lines by the compound of formula 1A was done with standard human tumor cells (established cell lines available from the American Type Tissue culture collection). […] Cells were counted after 3 days in culture and at a cell density of no more than 80%.
(§3) Briefly, cells were plated in plastic tissue culture plates and grown under standard conditions for each cell line, in carbon dioxide/oxygen atmosphere in plastic tissue culture plates, in the presence of COTI-4 or COTI-4A compounds at 35° C. for 3 days. Control cultures were treated with vehicle minus compound. Cells were counted after 3 days in culture and at a cell density of no more than 80%. The following cell lines, obtained from the National Cancer Institute, were tested: human SCLC cell lines DMS 153, DMS114, SHP77; human NSCLC cell lines H226, A460, A549; human breast cancer cell lines T47D, MCF7; human colon cancer cell line HT29; and, human Leukemia cell lines K562, HL60.

Series [3] has as its system DMS-153 human SCLC cell line. The series is described as above. The class given is cell-based. The conditions noted are these: for IC50: DMS-153 SCLC cells, 3 days, 35° C. How it is done:
as §1, §2, §3

In series [4] the test system is SHP-77 human SCLC cell line. Described as above. The class given is cell-based. The following applies: for IC50: Homo sapiens. As to the method:
as §1, §2, §3

Series [5] relates to A460 large cell carcinoma-derived cells (NSCLC; also printed H460). The description is as above. The class given is cell-based. The conditions noted are these: Homo sapiens. How it is done: (§4) In vitro inhibition of non-small cell lung cancer (NSCLC) cell lines by the compound of Formula 1B (COTI-4) was evaluated. […] Cells were counted after 3 days in culture and at a cell density of no more than 80%.
(§5) In vitro inhibition of non-small cell lung cancer (NSCLC) cell lines by the compound of Formula 1A is evaluated. […] Cells are counted after 3 days in culture and at a cell density of no more than 80%.
as §3

Series [6] deals with A549 adenocarcinoma-derived cells (NSCLC). The description is as above. It is filed as cell-based. The conditions noted are these: Homo sapiens. How it is done:
as §4, §5, §3

Series [7] deals with H226 squamous cell carcinoma-derived cells (NSCLC). The series is described as above. It is filed as cell-based. The following applies: Homo sapiens. How it is done:
as §4, §5, §3

Series [8] relates to human small cell lung cancer cell lines (DMS-114, DMS-153, SHP-77). Description: In vitro inhibition of SCLC cell lines, summary statements. The class given is cell-based.
From the text: as §1, §2

In series [9] the test system is human non-small cell lung cancer cell lines (A549, H226, A460). Description: In vitro inhibition of NSCLC cell lines, summary statements. The class given is cell-based. The following applies: across NSCLC cell lines, read-out: IC50 values, inhibits growth and/or kills NSCLC cells. How it is done: (§6) In vitro inhibition of non-small cell lung cancer (NSCLC) cell lines by the compound of Formula 1B (COTI-4) was evaluated. Standard numbers of human tumor cells (established cell lines available from the American Type Tissue culture collection) were plated in plastic tissue culture plates and grown under standard conditions for each cell line, in carbon dioxide/oxygen atmosphere in plastic tissue culture plates, in the presence of COTI-4 (0-1 mM) or Gleevec® ([…]) at 35° C. for 3 days. Control cultures were treated with vehicle minus compound or Gleevec®. Cells were counted after 3 days in culture and at a cell density of no more than 80%.
as §6, with “Formula 1A is” for “Formula 1B (COTI-4) was”, “of compounds of formula 1A” for “of COTI-4”, “cultures are” for “cultures were”, “Cells are” for “Cells were”

Series [10] concerns HL60 human Leukemia cell line. Description: In vitro IC50 against cancer cell lines. The class given is cell-based. The following applies: HL-60, 72 h, HL60 leukemia cells, 3 days, 35° C. How it is done: (§7) Briefly, cells were plated in plastic tissue culture plates and grown under standard conditions for each cell line, in carbon dioxide/oxygen atmosphere in plastic tissue culture plates, in the presence of COTI-4 or COTI-4A compounds at 35° C. for 3 days. Control cultures were treated with vehicle minus compound. Cells were counted after 3 days in culture and at a cell density of no more than 80%.

Series [11] has as its system HT29 human colon cancer cell line. In words: In vitro IC50 against cancer cell lines. The conditions noted are these: HT-29, 72 h, HT29 colorectal cancer cells, 3 days, 35° C. The class given is cell-based. As to the method:
as §7

Series [12] deals with K562 human Leukemia cell line. In words: In vitro IC50 against cancer cell lines. It is filed as cell-based. The following applies: 72 h, K562 leukemia cells, 3 days, 35° C. How it is done:
as §7

For series [13], the system named is MCF7 human breast cancer cell line. In words: In vitro IC50 against cancer cell lines. The following applies: 72 h, MCF7 breast cancer cells, 3 days, 35° C. It is filed as cell-based. As to the method:
as §7

Series [14] deals with T47D human breast cancer cell line. Description: In vitro IC50 against cancer cell lines. The conditions noted are these: 72 h, T47D breast cancer cells, 3 days, 35° C. The class given is cell-based. As to the method: as §7
Series [15] can be described thus: Escalating dose acute toxicity study in mice. The following applies: mice, 4, 8, 16 mg/kg, alternate day IP injections for 28 days. The class given is in vivo. As to the method:
An escalating dose acute toxicity study was conducted with COTI-2, COTI-4 (Formula 1B) and COTI-219. Standard lab mice were divided into four treatment groups (control, 4, 8, 16 mg/kg) with four animals per group. It should be noted that the highest dose was approximately 10 times the estimated effective dose. Mice were given alternate day IP injections for 28 days.

Setting [16] is: Homo sapiens, DMS-114, actual in-vitro data, logarithm of IC50, negative, read-out: DMS114 (Log IC50) (converted).
Where [17] appears, read: SHP77, 72 h, SHP-77 SCLC cells, 3 days, 35° C., read-out: IC50.
[18] abbreviates: SHP77, actual in-vitro data, logarithm of IC50, negative, read-out: SHP-77 (Log IC50) (converted).
The mark [19] stands for this setting: NCI-H460, 72 h, A460 NSCLC cells, 3 days, 35° C., read-out: IC50.
Setting [20] is: NCI-H460, actual in-vitro data, logarithm of IC50, negative, read-out: H460 (Log IC50) (converted).
Where [21] appears, read: 72 h, A549 NSCLC cells, 3 days, 35° C., read-out: IC50.
Setting [22] is: A549, actual in-vitro data, logarithm of IC50, negative, read-out: A549 (Log IC50) (converted).
Where [23] appears, read: NCI-H226, 72 h, H226 NSCLC cells, 3 days, 35° C., read-out: IC50.
Where [24] appears, read: NCI-H226, actual in-vitro data, logarithm of IC50, negative, read-out: H226 (Log IC50) (converted).

For the compound `S=C(N/N=C1/CCCc2cccnc21)N1CCN(c2ccccn2)CC1` [COTI-2], in [1], the “maximum number of tumours versus control, saline-treated mice” value (from here on “maximum number of tumours versus control”) is “lower than that in control” and the “mean tumour size versus saline-treated mice” value is “significantly lower”.
For the compound `CN1CCN(C(=S)NN=C2c3ncccc3-c3cccnc32)CC1` [COTI-219], the “maximum number of tumours versus control” value in [1] is recorded as “lower than that in control”.
On to `CN1CCN(C(=S)NN=C(c2ccccc2)c2ccnnc2)CC1` [Formula 1A, 4-methyl-N′-[phenyl(pyridazin-4-yl)methylidene]piperazine-1-carbothiohydrazide], for which the melting point is 141 to 143 °C. Besides, the “times more effective in vitro than Gleevec®” value in series [2] (DMS-114) is recorded as “about 100”. For the same compound, the IC50 in series [2] (DMS-114 SCLC cells, 3 days, 35° C., listed as COTI-4A, read-out: IC50) amounted to 650 nM. Besides, the IC50 in [2] (Homo sapiens, DMS-114, 72 h, DMS-114 SCLC cells, 3 days, 35° C., read-out: IC50) was less than 1000 nM. The IC50 in [2] (setting [16]) is 650 nM. Also, the “times more effective in vitro than Gleevec®” value in series [3] (DMS-153) is on record as “about 100”. For the same compound, the IC50 in [4] (setting [17]) is 10000 nM. In addition, in series [4] (setting [18]), the IC50 was 10700 nM. In series [4] (SHP-77), the “effectiveness relative to Gleevec®” value is recorded as “about twice as effective”. In addition, the IC50 in series [5] (setting [19]) came to 100000 nM. For the same compound, in series [5] (setting [20]), the IC50 is 72400 nM. The IC50 in [6] (setting [21]) is 1500 nM. The IC50 in series [6] (setting [22]) was 1570 nM. For the same compound, the IC50 in [7] (setting [23]) is 90000 nM. In addition, in series [7] (setting [24]), the IC50 is 63500 nM. Moreover, the IC50 in series [8] (Homo sapiens, across SCLC cell lines, depending on cell line tested, read-out: IC50 values, inhibits growth and/or kills SCLC cells) is no less than 650 nM. In series [9], the IC50 is no less than 1500 nM.
In the case of `CN1CCN(C(=S)NN=C(c2ccccn2)c2ccccn2)CC1` [Formula 1B, N′-(dipyridin-2-ylmethylidene)-4-methylpiperazine-1-carbothiohydrazide], the IC50 in series [2] (DMS-114 SCLC cells, 3 days, 35° C., listed as COTI-4 (1B), read-out: IC50) was 30 nM; in series [2] (DMS-114 SCLC cells, 3 days, 35° C., listed as COTI-4M05, read-out: IC50), 30 nM; in series [2] (setting [16]) it was 30 nM; in series [3] (listed as COTI-4 (1B)) it was 130 nM; in series [3] (listed as COTI-4M05), 130 nM; in series [4] (setting [17]) it was 173 nM. Besides, the IC50 was 173 nM in [4] (setting [18]); 5100 nM in series [5] (setting [19]); 5110 nM in [5] (setting [20]); 6800 nM in series [6] (setting [21]); 6810 nM in series [6] (setting [22]); 2500 nM in series [7] (setting [23]). The IC50 was 2500 nM in series [7] (setting [24]); 318 nM in series [10]; 83 nM in [11]; 95 nM in series [12]; 291 nM in series [13]; 224 nM in [14]. Besides, in series [9], the IC50 is no less than 2500 nM. In addition, the “times more effective than Gleevec® against these cell lines in vitro” value in series [8] (3 human small cell lung cancer cell lines) was “over 100”. In addition, the mean tumor volume in series [1] came out at 6.2 mm^3. Besides, the “maximum number of tumours versus control” value in series [1] is listed as “lower than that in control”. The “mean tumour size versus saline-treated mice” value in [1] was “significantly lower”. Moreover, the “acute toxicity / adverse events” value in series [15] is “safe and non-toxic at all dosage levels”.
On to `CC(=O)O[C@H]1C(=O)[C@@]2(C)[C@H]([C@H](OC(=O)c3ccccc3)[C@]3(O)C[C@H](OC(=O)[C@H](O)[C@@H](NC(=O)c4ccccc4)c4ccccc4)C(C)=C1C3(C)C)[C@]1(OC(C)=O)CO[C@@H]1C[C@@H]2O` [Taxol®, paclitaxel], for which, in [1], the mean tumor volume is 183 mm^3; the “maximum number of tumours versus control” value was “lower than that in control”; the “mean tumour size versus saline-treated mice” value was “significantly lower”.
For `N.N.[Cl][Pt][Cl]` [cisplatin] the same measures were 132±26 mm^3, “lower than that in control” and “significantly lower”.
